Source: paper PMC10720538, “Population pharmacokinetic modeling and target attainment analyses of rezafungin for the treatment of candidemia and invasive candidiasis” (Antimicrobial Agents and Chemotherapy, 2023)
Where two headings read alike, the source gives them in different places. *1 amine or outer side, *2 acyl side, *3 side chain or, on linkers, in order; H or OH if unused. Where a SMILES comes first, the peptide text is derived from it. Bridges are numbered along the chain shown (N, C = ends). [ ]: non-standard residue; d: D form. The star is where a group is joined. Orn(4R-OH,5R-OCH2CH2NMe3+) = C[N+](C)(C)CCO[C@@H](N[*:3])[C@H](O)C[C@H](N[*:1])C(=O)[*:2]; pTerphenylCO(4''-OnC5H11) = CCCCCOc1ccc(-c2ccc(-c3ccc(C(=O)*)cc3)cc2)cc1; hTyr(3S-OH,4S-OH) = N[C@H](C(=O)O)[C@H](O)[C@@H](O)c1ccc(O)cc1; Pro(3S-OH,4S-Me) = C[C@H]1CN[C@H](C(=O)O)[C@H]1O; Hyp = O=C(O)[C@@H]1C[C@@H](O)CN1

Experiments:
[1] = mouse plasma; cited from earlier work
Method: Using each simulated patient’s Bayesian PK parameters and dose amounts, simulations were performed to obtain plasma concentration profiles. […] For the purposes of target attainment analyses, AUC0–168h after the first dose was used (day 1). Protein binding of 99.2% in mouse plasma and of 97.4% in human (presumed healthy) plasma has been reported ([34]).

[2] = cited from earlier work
Method: FIG 4 Probability of pharmacokinetic/pharmacodynamic target attainment for 400 mg rezafungin against Candida species using CLSI methodology. f, free. TEXT PRINTED IN THE PICTURE: no label printed: Candida albicans − fAUC/MIC Targets: CLSI Target: Stasis 20.5; Candida albicans − fAUC/MIC Targets: CLSI Target: 1-Log Drop in CFU 37.2; Candida glabrata − fAUC/MIC Targets: CLSI Target: Stasis 0.5; Candida glabrata − fAUC/MIC Targets: CLSI Target: 1-Log Drop in CFU 2.94; Candida parapsilosis − fAUC/MIC Targets: CLSI Target: Stasis 18.2; Candida auris − fAUC/MIC Targets: CLSI Target: Stasis 12.1; Can ... || It is noted that the target attainment (TA) methodology uses the simulated fAUC0–168h/MIC ratios; therefore, the value of plasma protein binding (PPB) influences this analysis. The free fraction of rezafungin used in the analysis was 2.6%, obtained from measuring PPB in plasma from healthy subjects. […] While there are still questions in the scientific community about how to verify information from the nonclinical model to support PK/PD-b ... || Using each simulated patient’s Bayesian PK parameters and dose amounts, simulations were performed to obtain plasma concentration profiles. […] For the purposes of target attainment analyses, AUC0–168h after the first dose was used (day 1). […]

[3] = Population pharmacokinetic model of rezafungin (three-compartment, NONMEM) from plasma concentrations of Phase 1, 2 and 3 studies; assay type: in vivo, human
Method: Data from single- and multiple-dose studies in healthy volunteers and patients, with doses ranging from 50 to 1,400 mg, were included in the PK analysis. All doses of rezafungin were administered via IV infusion. The PK data set consisted of a total of 2,512 rezafungin concentration records from 277 subjects, of which five records were identified as below the lower limit of quantitation postdose and five other records were identified as above 50 µg/mL, which was the upper limit of quantitation. Those records together represent less than 0.5% of the observed concentrations and were excluded from the analysis.
Starting from the previously developed four-compartment PK model ([13]), structurally simpler two- and three-compartment models with IIV in various parameters were developed and compared. During the initial modeling exercise, eight additional records were identified as outliers using conditional weighted residuals greater than 5 or smaller than −5 as a criterion and were excluded from model development. […] The two other compartments were considered peripheral distribution compartments (V2 and V3). When IIVs in V2 and V3 were included in the model, it was recognized that the individual IIVs on V2 and V3 were highly correlated, and, in addition, the typical estimates of V2 and V3 were very similar. Therefore, a model with a shared IIV term and with a single shared parameter for V2 and V3 [peripheral volume (V23)] was tested. […] The estimation of a four-compartment model achieved a moderate improvement in the value of the objective function (VOF) (a decrease of 49 points). However, there was no discernible improvement in the goodness-of-fit model diagnostics, and the residual error was nearly identical. Therefore, the three-compartment structural model was considered to adequately describe the PK of rezafungin without overparameterization. The inclusion of IIV terms was tested on various PK parameters, including clearance (CL), central volume of distribution (V1), V23, intercompartmental clearance 1 (Q2), and intercompartmental clearance 2 (Q3). Interindividual variability terms on CL, V1, and V23 were sufficient to achieve good individual predictions. For the residual variability (RV), the constant coefficient of variation (CCV) and combined additive and proportional error models were tested.
The final PK model of rezafungin is a three-compartment model with first-order elimination, characterized by the parameters CL, V1, V23, Q2, and Q3. The variability model included IIV in V1, V23, and CL, their covariances, and a proportional RV model (Table 2). All fixed and random effect parameters, including those of the covariance terms, were estimated with reasonable precision (<39%RSE). The magnitudes of the IIV parameters were moderate for all parameters: 30.5 coefficient of variation expressed as a percent (%CV) for CL, 37.6%CV for V1, and 29.3%CV for V23. Eta shrinkage was low for all parameters (<11%), and the residual error was also low (9.74%CV).
Data were obtained from five Phase 1 studies (CD101.IV.1.01, CD101.IV.1.02, CD101.IV.1.06, CD101.IV.1.07, and CD101.IV.1.15), a Phase 2 study (CD101.IV.2.03; STRIVE), and a Phase 3 study (CD101.IV.3.05; ReSTORE) (Table S1). All study participants met the inclusion and exclusion criteria for the study in which they were enrolled. All clinical studies were conducted in compliance with International Council for Harmonisation guidelines on Good Clinical Practice.
Dosing regimens for rezafungin are described in Table S1. Data from both single- and multiple-dose studies, with doses ranging from 50 to 1,400 mg, were included in this analysis. All doses of rezafungin were administered via IV infusion.
Dense PK samples were collected in the Phase 1 studies, and a mixture of dense and sparse PK samples were collected in the Phase 2 and Phase 3 studies. […]

[4] = final population PK model, population mean
[5] = final population PK model, population mean, covariate effect

In the case of CCCCCOc1ccc(-c2ccc(-c3ccc(C(=O)N[C@H]4C[C@@H](O)[C@@H](OCC[N+](C)(C)C)NC(=O)[C@@H]5[C@@H](O)[C@@H](C)CN5C(=O)[C@H]([C@@H](C)O)NC(=O)[C@H]([C@H](O)[C@@H](O)c5ccc(O)cc5)NC(=O)[C@@H]5C[C@@H](O)CN5C(=O)[C@H]([C@@H](C)O)NC4=O)cc3)cc2)cc1 [rezafungin] ({pTerphenylCO(4''-OnC5H11)}-[Orn(4R-OH,5R-OCH2CH2NMe3+)]T[Hyp][hTyr(3S-OH,4S-OH)]T[Pro(3S-OH,4S-Me)]; lactam 1-C), the Protein binding [1] is given as 99.2%, the Protein binding ([2]; human (presumed healthy) plasma) is given as 97.4% and the free fraction ([2]; plasma from healthy subjects, used to calculate fAUC0–168h) is given as 2.6%. For the same compound, the CL ([3]; BSA 1.3 m^2, based on the final model estimates) was 0.235 L/h, the CL ([3]; BSA 2.6 m^2, based on the final model estimates) was 0.433 L/h and the “lower CL in healthy subjects than infected subjects or those with hepatic impairment” value ([3]; final model estimates) was 27.6%. For the same compound, the “Q2, Distribution clearance 1” value [3, 4] was 0.236 L/h, the “Q3, Distribution clearance 2” value [3, 4] was 12.4 L/h and the “V23, Peripheral volume 1 and 2” value ([3]; final population PK model, population mean, BSA 1.9 m^2, ALB 3.2 g/dL) was 19.1 L. For the same compound, the “CL, Central clearance” value ([3]; final population PK model, population mean, IV infusion, 277 subjects, typical value for disease state, BSA 1.9 m^2) was 0.328 L/h, the “Exponent of (BSA/1.9) for V1” value [3, 5] was 1.56 and the “Exponent of (BSA/1.9) for V23” value [3, 5] was 1.17. The “V1, Central volume” value ([3]; final population PK model, population mean, typical value for disease state, BSA 1.9 m^2) was 17.7 L.
